Experimental data: ChEMBL document CHEMBL1137799, “Bisbenzylisoquinoline alkaloids” (J Nat Prod, 1991)
Converted amounts (≈) assume the structure as drawn.

Key:
[1] = Inhibition of calmodulin-stimulated Ca2+/Mg2+ ATPase activity in human erythrocyte membrane; assay type: cell membranes
[2] = target: Dual specificity calcium/calmodulin-dependent 3',5'-cyclic nucleotide phosphodiesterase 1A (Homo sapiens, UniProt P54750); assay: Inhibition of calmodulin-dependent phosphodiesterase
[3] = Drug absorption in digestive tract of Wistar rat at 5 mg/kg, iv and po; assay type: ADME, organism-based; parameters: dose 5 mg/kg, route oral; settings: in vivo, read-out: Drug uptake
[4] = Half life in Wistar rat at 5 mg/kg, iv and po; assay type: ADME, organism-based; parameters: dose 5 mg/kg, route oral; settings: in vivo
[5] = Half life in Wistar rat testis at 5 mg/kg, iv and po; assay type: ADME, organism-based; parameters: dose 5 mg/kg, route oral
[6] = Protein binding in Wistar rat serum at 5 mg/kg, iv and po; assay type: ADME, organism-based; parameters: dose 5 mg/kg, route oral; settings: read-out: PB (converted)
[7] = test system: Plasmodium falciparum; assay: Antimalarial activity against Plasmodium falciparum; assay type: functional, organism-based
[8] = test system: Homo sapiens; assay: Increase in N-methyl-curine-induced neuromuscular blocking in patient during endotracheal intubation administered through inhalation; assay type: functional, organism-based
[9] = Inhibition of formyl-methionyl-leucyl-phenylalanine induced superoxide generation in PMNC; assay type: functional
[10] = target: Muscarinic acetylcholine receptor; assay: Displacement of [3H]QNB from rat brain muscarinic receptor
[11] = Inhibition of phorbol myristate acetate-induced superoxide anion production in mouse peritoneal exudate cells at 50 ug/ml; assay type: functional
[12] = Inhibition of phorbol myristate acetate-induced superoxide anion production in mouse peritoneal exudate cells at 5 ug/ml; assay type: functional
[13] = species: Mus musculus; assay: Inhibition of 12-O-tetradecanoylphorbol-13-acetate-induced carcinogenic activity in mouse ear at 2 mg, applied locally; assay type: functional
[14] = Toxicity in ip dosed rat; assay type: organism-based; settings: in vivo

Sequence of Dual specificity calcium/calmodulin-dependent 3',5'-cyclic nucleotide phosphodiesterase 1A (P54750 whole entry): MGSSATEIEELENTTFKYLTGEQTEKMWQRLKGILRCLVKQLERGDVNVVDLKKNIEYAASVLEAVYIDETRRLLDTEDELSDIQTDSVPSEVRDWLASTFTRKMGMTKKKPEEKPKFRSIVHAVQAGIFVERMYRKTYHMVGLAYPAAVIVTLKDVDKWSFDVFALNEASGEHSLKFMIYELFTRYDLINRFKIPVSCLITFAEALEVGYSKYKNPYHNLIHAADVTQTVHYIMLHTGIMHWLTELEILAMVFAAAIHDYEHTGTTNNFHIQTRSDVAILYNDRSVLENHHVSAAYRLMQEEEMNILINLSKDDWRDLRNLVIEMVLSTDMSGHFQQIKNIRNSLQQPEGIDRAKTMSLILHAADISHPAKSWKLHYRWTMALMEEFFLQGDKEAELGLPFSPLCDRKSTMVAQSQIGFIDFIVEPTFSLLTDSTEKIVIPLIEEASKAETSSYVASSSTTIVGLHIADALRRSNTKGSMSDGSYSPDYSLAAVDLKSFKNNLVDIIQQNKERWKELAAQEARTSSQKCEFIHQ

| SMILES | IC50 [7] [µg/mL] | inhibition (INH) [9] [%] | further results |
| --- | --- | --- | --- |
| CCOCCCCOc1ccc2cc1Oc1ccc(cc1)C[C@H]1c3cc(c(OC)cc3CCN1C)Oc1c(OC)c(OC)cc3c1[C@@H](C2)N(C)CC3 | – | – | IC50 [1]: 0.35 µM; IC50 [2]: 0.35 µM |
| COc1ccc2cc1Oc1ccc(cc1)C[C@H]1c3c(cc4c(c3Oc3cc5c(cc3OC)CCN(C)[C@@H]5C2)O[14CH2]O4)CCN1C | – | – | Fa [3]: 70%; half-life [4]: 8 days; half-life [5]: 36 days; fraction unbound [6]: 0.26 |
| COc1ccc2cc1Oc1ccc(cc1)CC1NCCc3cc(O)c4c(c31)Oc1c(OC)cc3c(c1O4)[C@H](C2)N(C)CC3 (stereo partly specified) | 1.1 (≈ 1.9 µM) | – | – |
| FC(F)OC(F)(F)C(F)Cl (stereo unspecified) | – | – | inhibition [8]: Dose-dependent effect |
| COc1cc2c3cc1Oc1c(OC)c(OC)cc4c1[C@H](Cc1ccc(cc1)Oc1cc(ccc1O)C[C@H]3N(C)CC2)N(C)CC4 [AROMOLINE] | 0.67 (≈ 1.1 µM) | 63.1 | – |
| COc1cc2c3cc1Oc1c(OC)c(OC)cc4c1[C@@H](Cc1ccc(O)c(c1)Oc1ccc(cc1)C[C@@H]3N(C)CC2)N(C)CC4 [BERBAMINE] | – | 56.4 | Ki [10]: 1.9 ×10⁻⁷ M; IC50 [1]: 60 µM; IC50 [2]: 22 µM |
| COc1cc2c3cc1Oc1c4c(cc5c1[C@H](Cc1ccc(cc1)Oc1cc(ccc1O)C[C@H]3N(C)CC2)N(C)CC5)OCO4 [CEPHARANOLINE] | – | 56 | – |
| COc1ccc2cc1Oc1ccc(cc1)C[C@H]1c3c(cc4c(c3Oc3cc5c(cc3OC)CCN(C)[C@@H]5C2)OCO4)CCN1C [CEPHARANTHINE] | – | – | inhibition at 50 µg/mL [11]: 85%; inhibition at 5 µg/mL [12]: 34%; inhibition (INH) [13]: 78% |
| COc1cc2c3c4c1Oc1cc5c(cc1O4)[C@H](Cc1ccc(O)c(c1)Oc1ccc(cc1)C[C@@H]3N(C)CC2)N(C)CC5 [COCSULINE] | 15.6 (≈ 27.7 µM) | – | – |
| COc1c2cc3c(c1OC)CCN(C)[C@@H]3Cc1ccc(cc1)Oc1cc3c(c(OC)c1OC)CCN(C)[C@@H]3Cc1ccc(cc1)O2 [CYCLEANINE] | – | 36.2 | – |
| COc1cc2c(cc1OC)[C@@H](Cc1ccc(Oc3cc(C[C@@H]4c5cc(OC)c(OC)cc5CCN4C)ccc3O)cc1)N(C)CC2 [DAURICINE] | – | 50.8 | LD50 [14]: 205 mg/kg |
| COc1ccc2cc1Oc1ccc(cc1)C[C@H]1c3cc(c(OC)cc3CCN1C)Oc1c(OC)c(OC)cc3c1[C@H](C2)N(C)CC3 [FANCHININ] | – | – | Ki [10]: 7.3 ×10⁻⁸ M |
| COc1ccc2cc1Oc1ccc(cc1)C[C@H]1c3cc(c(OC)cc3CCN1C)Oc1c(O)c(OC)cc3c1[C@H](C2)N(C)CC3 [FANGCHINOLINE] | – | 82.4 | – |
| COc1ccc2cc1Oc1ccc(cc1)C[C@H]1c3c(cc(OC)c(O)c3Oc3cc4c(cc3OC)CCN(C)[C@@H]4C2)CCN1C [HOMOAROMOLINE] | – | 67 | – |
| COc1cc2c3cc1Oc1c(OC)c(OC)cc4c1C(=NCC4)Cc1ccc(cc1)Oc1cc(ccc1O)CC3N(C)CC2 (stereo unspecified) [HYPOEPISTEPHANINE] | – | 34.1 | – |
| COc1ccc(C[C@@H]2c3cc(Oc4cc(C[C@@H]5c6cc(O)c(OC)cc6CCN5C)ccc4O)c(OC)cc3CCN2C)cc1 [ISOLIENSININE] | – | 59.6 | – |
| COc1ccc(C[C@@H]2c3cc(Oc4cc(C[C@@H]5c6cc(OC)c(OC)cc6CCN5C)ccc4O)c(OC)cc3CCN2C)cc1 [NEFERINE] | – | 63.6 | – |
| COc1cc2c3cc1Oc1c(O)c(OC)cc4c1[C@@H](Cc1ccc(O)c(c1)Oc1ccc(cc1)C[C@@H]3N(C)CC2)N(C)CC4 [OBAMEGINE] | 0.51 (≈ 0.858 µM) | – | – |
| COc1ccc2cc1Oc1ccc(cc1)C[C@@H]1c3cc(c(OC)cc3CCN1C)Oc1c(OC)c(OC)cc3c1[C@@H](C2)N(C)CC3 [PHAEANTHINE] | 1.43 (≈ 2.3 µM) | – | – |
| COc1cc2c3cc1Oc1c(OC)c(OC)cc4c1[C@@H](Cc1ccc(O)c(c1)Oc1ccc(cc1)C[C@H]3N(C)CC2)N(C)CC4 [PYCNAMINE] | 0.15 (≈ 0.246 µM) | – | – |
